# According to US4663438A, “Novel nucleic acid-containing glycoprotein” (Kureha Kagaku Kogyo Kabushiki Kaisha, priority 1981, dated 1987):
# Test system: sarcoma-180 cells
# Assay: Inhibition by monosaccharide of agglutination of sarcoma-180 cells due to the present substance
# Assay type: cell-based, mouse
# Conditions: present substance 3 mg with monosaccharide 1.5 mg, 30 min, 37° C.; blank test 18
# Experimental: (ii) Test on the inhibition by monosaccharide of agglutination of sarcoma-180 cells due to the present substance
# The same specimen of sarcoma-180 cells suspending in 0.5 ml of Hanks' solution at a rate of 1×10^6 cells/ml as in Test (i) and each 0.5 ml of the physiological saline solution containing 3 mg of the present substance and 1.5 mg of the respective monosaccharides set forth below, which was incubated for 30 min. at 37° C., then discarding the supernatant medium and washing the residue with Hanks' solution, the remaining residue was examined under a microscope to count the number of agglutinated lumps of the cells.
row,SMILES,Number of agglutinated lumps
1,O=C[C@H](O)[C@@H](O)[C@@H](O)[C@H](O)CO [D-galactose],118
2,C[C@H](O)[C@@H](O)[C@@H](O)[C@H](O)C=O [L-fucose],27
3,C[C@H](O)[C@H](O)[C@@H](O)[C@@H](O)C=O [L-rhamnose],25
4,CC(=O)N[C@@H]1[C@@H](O)[C@H](O)[C@@H](CO)O[C@H]1O [N--acetylglucosamine],85
5,CO[C@H]1O[C@H](CO)[C@@H](O)[C@H](O)[C@H]1O [methyl α-glucoside],115
6,COC1OC(CO)C(O)C(O)C1O (stereo not drawn) [methyl α-mannoside],35
